Patent US20090137572A1, “2-substituted-4-heteroaryl-pyrimidines useful for the treatment of proliferative disorders” (priority 2004, published 2009)

Tests used:
Assay type in all cases: biochemical
CDK1-cyclin B = CDK1-cyclin B (Homo sapiens, UniProt P06493); assay: Kinase assay (radioactive phosphate incorporation), CDK1-cyclin B; details: read-out: Kinase Inhibition pIC50 CDK1-cyclin B (converted)
Experimental: (§1) Kinase assays. The compounds of the invention above were investigated for their ability to inhibit the enzymatic activity of various protein kinases (Table 2). This was achieved by measurement of incorporation of radioactive phosphate from ATP into appropriate polypeptide substrates. Recombinant protein kinases and kinase complexes were produced or obtained commercially. Assays were performed using 96-well plates and appropriate assay buffers (typically 25 mM β-glycerophosphate, 20 mM MOPS, 5 mM EGTA, 1 mM DTT, 1 mM […], pH 7.4), into which were added 2-4 μg of active enzyme with appropriate substrates. The reactions were initiated by addition of Mg/ATP mix (15 mM MgCl2+100 μM ATP with 30-50 kBq per well of [γ-^32P]-ATP) and mixtures incubated as required at 30° C. Reactions were stopped on ice, followed by filtration through p81 filterplates or GF/C filterplates (Whatman Polyfiltronics, Kent, UK). After washing 3 times with 75 mM aq orthophosphoric acid, plates were dried, scintillant added and incorporated radioactivity measured in a scintillation counter (TopCount, Packard Instruments, Pangbourne, Berks, UK). Compounds for kinase assay were made up as 10 mM stocks in DMSO and diluted into 10% DMSO in assay buffer.

CDK2-cycline E = CDK2-cycline E (Homo sapiens, UniProt P24941); assay: Kinase assay (radioactive phosphate incorporation), CDK2-cyclin E; details: read-out: Kinase Inhibition pIC50 CDK2-cycline E (converted)
Method in brief: (§2)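 Inhibition was measured as transfer of radiolabelled phosphate from [γ-32P]-ATP (100 μM ATP, 15 mM MgCl2) onto polypeptide substrates by recombinant kinases or kinase complexes. Reactions ran at 30° C in MOPS/β-glycerophosphate buffer, pH 7.4, were stopped on ice and filtered before scintillation counting.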

CDK4-cyclin D1 = CDK4-cyclin D1 (Homo sapiens, UniProt P11802); assay: Kinase assay (radioactive phosphate incorporation), CDK4-cyclin D1; details: read-out: Kinase Inhibition pIC50 CDK4-cyclin D1 (converted)
Experimental: as §1

CDK7/cyclin H = CDK7/cyclin H (Homo sapiens, UniProt P50613); assay: CDK 7 assay (CTD peptide substrate); details: read-out: Kinase Inhibition pIC50 CDK7-cyclin H (converted)
Method in brief: (§3)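 Radiometric filter-binding read-out: 32P transferred from 100 μM [γ-32P]ATP to biotinyl-(YSPTSPS)4 CTD peptide. Enzyme 0.5-2 μg recombinant human complex; 20 mM MOPS pH 7.2, 15 mM MgCl2, vanadate, DTT; 45 min, 30° C; avidin bound, P81 plate washed, counted.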

CDK9/cyclin T1 = CDK9/cyclin T1 (Homo sapiens, UniProt P50750); assay: CDK 9 assay (CTD peptide substrate); details: read-out: Kinase Inhibition pIC50 CDK9-cyclin T1 (converted)
Method in brief: as §3

GSK3b = GSK3b (Homo sapiens, UniProt P49841); assay: Kinase assay (radioactive phosphate incorporation), GSK-3b; details: read-out: Kinase Inhibition pIC50 GSK-3b (converted)
Experimental: as §1

CDK2-cyclin A = CDK2-cyclin A (Homo sapiens, UniProt P24941); assay: Kinase assay (radioactive phosphate incorporation), CDK2-cyclin A; details: read-out: Kinase Inhibition pIC50 CDK2-cyclin A (converted)
Experimental: as §1

[1] = molecular target: T1, Flt3 (FMS-like tyrosine kinase-3) (Homo sapiens, UniProt P36888); assay: Kinase assay (radioactive phosphate incorporation), Flt3; details: pIC50 is -log(IC50, M), read-out: Kinase Inhibition pIC50 Flt3 (converted)
T1 sequence (P36888 27-993): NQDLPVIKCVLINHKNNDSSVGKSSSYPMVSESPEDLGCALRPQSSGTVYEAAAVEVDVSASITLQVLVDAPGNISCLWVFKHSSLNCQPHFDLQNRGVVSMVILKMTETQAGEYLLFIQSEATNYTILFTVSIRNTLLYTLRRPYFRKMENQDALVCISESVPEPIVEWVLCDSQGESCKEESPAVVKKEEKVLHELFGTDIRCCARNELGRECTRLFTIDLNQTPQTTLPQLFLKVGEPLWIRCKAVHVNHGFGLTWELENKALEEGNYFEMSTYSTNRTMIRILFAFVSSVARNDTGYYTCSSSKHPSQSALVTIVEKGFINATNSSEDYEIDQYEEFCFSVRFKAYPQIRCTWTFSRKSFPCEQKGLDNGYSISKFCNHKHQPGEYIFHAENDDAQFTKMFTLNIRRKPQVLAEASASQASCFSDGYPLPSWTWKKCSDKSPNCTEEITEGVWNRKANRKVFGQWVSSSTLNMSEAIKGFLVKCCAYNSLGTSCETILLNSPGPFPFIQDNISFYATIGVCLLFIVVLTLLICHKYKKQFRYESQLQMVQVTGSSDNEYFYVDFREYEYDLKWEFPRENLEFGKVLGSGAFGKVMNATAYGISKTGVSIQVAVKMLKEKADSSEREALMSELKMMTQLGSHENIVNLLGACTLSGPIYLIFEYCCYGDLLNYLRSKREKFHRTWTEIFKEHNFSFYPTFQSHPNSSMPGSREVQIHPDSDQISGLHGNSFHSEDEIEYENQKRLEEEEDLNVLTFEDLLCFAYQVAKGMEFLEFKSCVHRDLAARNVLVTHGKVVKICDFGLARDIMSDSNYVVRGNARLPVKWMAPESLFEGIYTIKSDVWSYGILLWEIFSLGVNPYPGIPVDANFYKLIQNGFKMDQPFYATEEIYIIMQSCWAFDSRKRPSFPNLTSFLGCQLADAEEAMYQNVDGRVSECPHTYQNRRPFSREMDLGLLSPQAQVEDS
Method in brief: as §2

Aurora A kinase = molecular target: T2, Aurora A kinase (Homo sapiens, UniProt O14965); assay: Aurora-A (human) kinase assay (Kemptide substrate); details: pIC50 is -log(IC50, M); 15 μM ATP; read-out: Kinase Inhibition pIC50 Aurora A kinase (converted)
T2 construct: purchased
T2 sequence (O14965 1-403): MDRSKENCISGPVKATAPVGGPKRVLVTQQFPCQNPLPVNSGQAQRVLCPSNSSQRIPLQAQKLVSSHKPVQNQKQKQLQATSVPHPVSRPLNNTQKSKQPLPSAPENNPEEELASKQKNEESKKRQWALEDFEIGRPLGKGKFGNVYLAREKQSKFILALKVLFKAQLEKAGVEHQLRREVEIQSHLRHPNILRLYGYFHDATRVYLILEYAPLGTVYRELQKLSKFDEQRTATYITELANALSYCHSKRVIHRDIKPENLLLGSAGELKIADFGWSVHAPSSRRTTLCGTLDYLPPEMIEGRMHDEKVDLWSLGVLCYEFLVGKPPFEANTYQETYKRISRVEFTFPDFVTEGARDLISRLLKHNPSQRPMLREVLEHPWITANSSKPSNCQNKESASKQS
Method in brief: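 Kemptide (LRRASLG, 200 μM) phosphorylation by 5-10 ng commercial aurora-A measured as [γ-33P] incorporation at 15 μM ATP with 10 mM Mg acetate, pH 7.0 MOPS buffer. Reaction ran 40 min at room temperature; acid-stopped, captured on P81 filters, scintillation read.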

Sequence of CDK9/cyclin T1 (P50750 whole entry): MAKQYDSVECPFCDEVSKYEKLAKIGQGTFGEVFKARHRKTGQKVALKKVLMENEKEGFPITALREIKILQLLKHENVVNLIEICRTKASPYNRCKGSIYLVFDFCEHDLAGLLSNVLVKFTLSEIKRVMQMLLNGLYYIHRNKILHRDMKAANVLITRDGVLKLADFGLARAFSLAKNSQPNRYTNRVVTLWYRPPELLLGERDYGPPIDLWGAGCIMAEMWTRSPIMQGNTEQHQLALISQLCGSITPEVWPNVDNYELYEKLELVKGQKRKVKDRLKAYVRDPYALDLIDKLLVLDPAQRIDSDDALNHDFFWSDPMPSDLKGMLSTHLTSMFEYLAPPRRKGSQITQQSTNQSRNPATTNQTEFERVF
Sequence of CDK9/cyclin T1 (O60563 whole entry partner): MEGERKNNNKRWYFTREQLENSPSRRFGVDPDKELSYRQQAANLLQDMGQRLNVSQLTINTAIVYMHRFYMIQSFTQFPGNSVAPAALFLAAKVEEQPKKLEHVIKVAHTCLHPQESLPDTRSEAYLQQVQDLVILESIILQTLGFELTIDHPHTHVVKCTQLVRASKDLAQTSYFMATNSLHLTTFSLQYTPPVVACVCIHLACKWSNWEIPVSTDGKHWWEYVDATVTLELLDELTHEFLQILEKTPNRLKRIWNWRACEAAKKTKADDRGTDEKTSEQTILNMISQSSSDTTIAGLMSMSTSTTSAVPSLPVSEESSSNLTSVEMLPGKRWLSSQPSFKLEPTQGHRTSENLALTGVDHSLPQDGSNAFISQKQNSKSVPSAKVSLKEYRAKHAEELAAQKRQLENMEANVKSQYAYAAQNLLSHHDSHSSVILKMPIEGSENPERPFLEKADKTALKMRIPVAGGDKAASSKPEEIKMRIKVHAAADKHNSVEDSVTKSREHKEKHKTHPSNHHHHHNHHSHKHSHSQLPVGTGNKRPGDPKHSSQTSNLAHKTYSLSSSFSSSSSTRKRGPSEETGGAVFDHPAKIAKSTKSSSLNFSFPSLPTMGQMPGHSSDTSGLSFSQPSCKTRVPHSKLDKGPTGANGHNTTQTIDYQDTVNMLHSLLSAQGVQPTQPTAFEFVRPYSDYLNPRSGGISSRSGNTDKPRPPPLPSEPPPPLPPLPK
Sequence of CDK7/cyclin H (P50613 whole entry): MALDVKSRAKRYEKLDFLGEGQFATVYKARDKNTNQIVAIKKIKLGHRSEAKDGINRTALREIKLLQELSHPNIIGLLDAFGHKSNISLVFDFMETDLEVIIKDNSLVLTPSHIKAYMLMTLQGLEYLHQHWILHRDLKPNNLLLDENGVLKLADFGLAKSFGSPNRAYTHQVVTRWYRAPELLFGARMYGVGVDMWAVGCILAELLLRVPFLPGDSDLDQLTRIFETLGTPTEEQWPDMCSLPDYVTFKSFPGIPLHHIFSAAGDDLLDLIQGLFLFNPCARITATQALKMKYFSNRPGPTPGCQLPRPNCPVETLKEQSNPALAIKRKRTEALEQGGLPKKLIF
Sequence of CDK7/cyclin H (P51946 whole entry partner): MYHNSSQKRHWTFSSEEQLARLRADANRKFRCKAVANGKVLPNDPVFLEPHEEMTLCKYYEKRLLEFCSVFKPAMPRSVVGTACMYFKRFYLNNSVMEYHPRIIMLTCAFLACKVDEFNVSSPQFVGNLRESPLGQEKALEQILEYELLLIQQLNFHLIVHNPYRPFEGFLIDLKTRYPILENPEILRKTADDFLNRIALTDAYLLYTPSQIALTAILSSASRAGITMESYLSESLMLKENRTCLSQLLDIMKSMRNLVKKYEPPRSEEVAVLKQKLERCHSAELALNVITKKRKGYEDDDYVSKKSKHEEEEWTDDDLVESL
Sequence of CDK4-cyclin D1 (P11802 whole entry): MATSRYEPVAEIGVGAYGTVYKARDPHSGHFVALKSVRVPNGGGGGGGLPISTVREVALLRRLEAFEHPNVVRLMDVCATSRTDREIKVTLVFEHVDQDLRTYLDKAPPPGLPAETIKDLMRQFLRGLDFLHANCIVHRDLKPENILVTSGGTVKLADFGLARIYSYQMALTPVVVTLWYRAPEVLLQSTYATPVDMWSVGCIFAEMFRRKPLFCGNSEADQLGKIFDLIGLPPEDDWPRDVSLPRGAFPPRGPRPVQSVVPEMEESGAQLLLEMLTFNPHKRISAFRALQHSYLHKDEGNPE
Sequence of CDK4-cyclin D1 (P24385 whole entry partner): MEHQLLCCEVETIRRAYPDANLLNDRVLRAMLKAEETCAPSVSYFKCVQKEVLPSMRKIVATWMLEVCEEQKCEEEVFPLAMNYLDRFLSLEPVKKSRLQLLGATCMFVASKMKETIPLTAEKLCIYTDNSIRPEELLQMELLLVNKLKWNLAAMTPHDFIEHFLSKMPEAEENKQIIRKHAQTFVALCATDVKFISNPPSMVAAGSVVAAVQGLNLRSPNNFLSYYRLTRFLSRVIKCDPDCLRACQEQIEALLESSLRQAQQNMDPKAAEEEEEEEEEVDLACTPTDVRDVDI
Sequence of GSK3b (P49841 whole entry, species assumed): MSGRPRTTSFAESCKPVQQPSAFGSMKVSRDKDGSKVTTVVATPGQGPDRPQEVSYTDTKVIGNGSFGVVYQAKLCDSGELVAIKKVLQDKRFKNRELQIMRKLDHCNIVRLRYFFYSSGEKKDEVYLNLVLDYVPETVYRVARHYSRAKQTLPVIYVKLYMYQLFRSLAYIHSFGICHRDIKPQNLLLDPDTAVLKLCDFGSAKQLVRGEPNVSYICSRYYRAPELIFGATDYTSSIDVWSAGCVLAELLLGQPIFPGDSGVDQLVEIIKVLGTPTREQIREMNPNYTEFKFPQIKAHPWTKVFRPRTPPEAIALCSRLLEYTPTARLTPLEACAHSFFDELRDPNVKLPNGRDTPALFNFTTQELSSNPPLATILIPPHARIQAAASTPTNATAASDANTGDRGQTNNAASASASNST
Sequence of CDK1-cyclin B (P06493 whole entry): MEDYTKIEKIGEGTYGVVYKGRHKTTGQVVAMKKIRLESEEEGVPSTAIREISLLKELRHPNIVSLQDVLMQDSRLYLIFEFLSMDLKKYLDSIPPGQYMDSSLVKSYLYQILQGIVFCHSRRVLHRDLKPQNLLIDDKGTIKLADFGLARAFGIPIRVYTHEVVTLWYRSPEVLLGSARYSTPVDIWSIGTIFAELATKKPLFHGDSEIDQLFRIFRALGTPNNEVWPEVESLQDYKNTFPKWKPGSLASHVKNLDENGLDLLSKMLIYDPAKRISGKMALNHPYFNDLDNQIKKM
Sequence of CDK1-cyclin B (P14635 whole entry partner): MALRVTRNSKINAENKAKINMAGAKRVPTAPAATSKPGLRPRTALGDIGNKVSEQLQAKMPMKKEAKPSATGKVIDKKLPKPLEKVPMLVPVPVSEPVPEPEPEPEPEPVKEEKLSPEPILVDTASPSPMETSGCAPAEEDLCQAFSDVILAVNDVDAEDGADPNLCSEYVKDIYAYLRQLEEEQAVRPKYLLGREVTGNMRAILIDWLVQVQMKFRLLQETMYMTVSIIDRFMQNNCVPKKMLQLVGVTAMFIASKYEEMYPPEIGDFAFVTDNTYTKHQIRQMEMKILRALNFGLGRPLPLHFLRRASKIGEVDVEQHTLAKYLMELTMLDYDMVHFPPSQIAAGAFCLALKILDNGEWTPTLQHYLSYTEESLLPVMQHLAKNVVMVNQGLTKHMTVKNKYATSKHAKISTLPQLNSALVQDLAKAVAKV

Row | Structure (SMILES) | IC50 (CDK1-cyclin B) [nM] | IC50 (CDK2-cycline E) [nM] | IC50 (CDK4-cyclin D1) [nM] | IC50 (CDK7/cyclin H) [nM] | IC50 (CDK9/cyclin T1) [nM] | IC50 (GSK3b) [nM] | IC50 (CDK2-cyclin A) [nM] | IC50 [1] [nM] | IC50 (Aurora A kinase) [nM]
1 | Cc1ccc(Nc2nccc(-c3sc(NC(C)(C)C)nc3C)n2)cc1[N+](=O)[O-] [Compound 2, [4-(2-tert-Butylamino-4-methyl-thiazol-5-yl)-pyrimidin-2-yl]-(4-methyl-3-nitro-phenyl)-amine] | 1260 | 1580 | 316 | 794 | 316 | 631 | – | – | –
2 | CCNc1nc(C)c(-c2ccnc(Nc3ccc(CNC(C)=O)cc3)n2)s1 [Compound 13, N-{4-[4-(2-Ethylamino-4-methyl-thiazol-5-yl)-pyrimidin-2-ylamino]-benzyl}-acetamide] | 631 | – | 63.1 | 200 | 25.1 | – | 126 | 31.6 | 15.8
3 | CNc1nc(C)c(-c2ccnc(Nc3cccc(CC(=O)OCCOC)c3)n2)s1 [Compound 44, {3-[4-(4-Methyl-2-methylamino-thiazol-5-yl)-pyrimidin-2-ylamino]-phenyl}-acetic acid 2-methoxy-ethyl ester] | 2000 | – | 2000 | 3160 | 251 | – | 2000 | 63.1 | –
4 | CCNc1nc(C)c(-c2ccnc(Nc3ccc(N4CCN(C(C)=O)CC4)cc3)n2)s1 [Compound 58, 1-(4-{4-[4-(2-Ethylamino-4-methyl-thiazol-5-yl)-pyrimidin-2-ylamino]-phenyl}-piperazin-1-yl)-ethanone] | 5010 | 631 | 251 | – | – | – | 1000 | – | –
5 | CCOC(=O)Cc1cccc(NS(=O)(=O)c2ccc(Nc3nccc(-c4sc(NC)nc4C)n3)cc2)c1 [Compound 62, (3-{4-[4-(4-Methyl-2-methylamino-thiazol-5-yl)-pyrimidin-2-ylamino]-benzenesulfonylamino}-phenyl)-acetic acid ethyl ester] | – | 79.4 | – | – | 6310 | – | 3160 | – | –
6 | Cc1nc(N)sc1-c1ccnc(Nc2ccc(S(=O)(=O)NCc3ccccc3)cc2)n1 [Compound 73, 4-[4-(2-Amino-4-methyl-thiazol-5-yl)-pyrimidin-2-ylamino]-N-benzyl-benzenesulfonamide] | 100 | 12.6 | – | 1000 | 158 | – | 39.8 | – | 316
7 | CC(=O)NCc1cccc(Nc2nccc(-c3sc(-c4cccnc4)nc3C)n2)c1 [Compound 101, N-{3-[4-(4-Methyl-2-pyridin-3-yl-thiazol-5-yl)-pyrimidin-2-ylamino]-benzyl}-acetamide] | 3160 | 1260 | 3980 | 3980 | 5010 | 7940 | – | 316 | 126

Second part, the compound after the results:

Row | IC50 (CDK1-cyclin B) [nM] | IC50 (CDK2-cycline E) [nM] | IC50 (CDK4-cyclin D1) [nM] | IC50 (CDK7/cyclin H) [nM] | IC50 (CDK9/cyclin T1) [nM] | IC50 (GSK3b) [nM] | IC50 (CDK2-cyclin A) [nM] | IC50 [1] [nM] | IC50 (Aurora A kinase) [nM] | Structure (SMILES)
8 | 1000 | – | 2000 | 794 | 20 | 794 | – | – | 3.98 | CNc1nc(C)c(-c2ccnc(Nc3cc(OC)c(OC)c(OC)c3)n2)s1 [Compound 23, [4-(4-Methyl-2-methylamino-thiazol-5-yl)-pyrimidin-2-yl]-(3,4,5-trimethoxy-phenyl)-amine]
9 | 631 | 251 | 631 | – | – | – | 631 | 63.1 | 50.1 | CNc1nc(C)c(-c2ccnc(Nc3cc(CO)cc(CO)c3)n2)s1 [Compound 48, {3-Hydroxymethyl-5-[4-(4-methyl-2-methylamino-thiazol-5-yl)-pyrimidin-2-ylamino]-phenyl}-methanol]
10 | 200 | 25.1 | 1000 | – | 316 | – | 158 | 200 | 5.01 | Cc1nc(C)c(-c2ccnc(Nc3cccc(CNS(C)(=O)=O)c3)n2)s1 [Compound 49, N-{3-[4-(2,4-Dimethyl-thiazol-5-yl)-pyrimidin-2-ylamino]-benzyl}-methanesulfonamide]
11 | – | 63.1 | – | – | – | – | 50.1 | – | 316 | CCNS(=O)(=O)c1ccc(Nc2nccc(-c3sc(C)nc3C)n2)cc1 [Compound 66, 4-[4-(2,4-Dimethyl-thiazol-5-yl)-pyrimidin-2-ylamino]-N-ethyl-benzenesulfonamide]
12 | – | 631 | 7940 | – | 398 | – | 3160 | – | – | CCNc1nc(C)c(-c2ccnc(Nc3ccc(S(=O)(=O)NCc4ccccc4)cc3)n2)s1 [Compound 71, N-Benzyl-4-[4-(2-ethylamino-4-methyl-thiazol-5-yl)-pyrimidin-2-ylamino]-benzenesulfonamide]
13 | 794 | 158 | – | – | 6310 | – | 1260 | – | 2510 | CNc1nc(C)c(-c2ccnc(Nc3ccc(S(=O)(=O)NCc4ccccc4)cc3)n2)s1 [Compound 72, N-Benzyl-4-[4-(4-methyl-2-methylamino-thiazol-5-yl)-pyrimidin-2-ylamino]-benzenesulfonamide]
14 | – | 398 | – | – | – | – | 2000 | – | 126 | Cc1nc(C)c(-c2ccnc(Nc3ccc(S(=O)(=O)NCc4ccccc4)cc3)n2)s1 [Compound 74, N-Benzyl-4-[4-(2,4-dimethyl-thiazol-5-yl)-pyrimidin-2-ylamino]-benzenesulfonamide]
